Biological target: T1, Human sputum neutrophil elastase (Homo sapiens, UniProt P08246)
T1 construct: purchased Elastin Products Co; host or cells: human sputum (natural source)
T1 sequence (P08246 30-247 limits assumed): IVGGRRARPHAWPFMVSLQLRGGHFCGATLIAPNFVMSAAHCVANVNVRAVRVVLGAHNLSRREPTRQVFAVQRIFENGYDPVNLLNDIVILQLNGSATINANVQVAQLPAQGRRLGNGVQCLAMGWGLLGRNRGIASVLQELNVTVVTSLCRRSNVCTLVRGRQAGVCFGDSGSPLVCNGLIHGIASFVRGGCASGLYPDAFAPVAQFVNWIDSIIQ
Assay: Inhibitor IC50 against human neutrophil elastase (fluorogenic MeOSuc-AAPV-AMC substrate)
Type: biochemical
Conditions: 20 min preincubation, read-out: HNE IC50
Experimental: Determination of Inhibitor IC50 Values Against Human Neutrophil Elastase
Human sputum neutrophil elastase (Elastin Products Co.) was diluted into Assay Buffer A (200 mM Tris pH 7.4, 1 mg/ml BSA) to a working concentration of 0.55 U/ml. […] DMSO alone was used as the negative control. MeOSuc-AAPV-AMC (Bachem) substrate was dissolved in DMSO to 20 mM and further diluted to 1 mM in Assay Buffer A immediately before use. Substrate was added to the elastase assay at a final concentration of 1×10^−4 M. The reaction was allowed to proceed for 20 minutes at room temperature and then quenched with acetic acid at a final concentration of 3% (v/v). […] Fluorescence intensity versus inhibitor concentration was plotted and fit to the Hill equation to quantify IC50 values.

Compound	IC50
O=c1oc(-c2cccnc2-n2ccnc2)nc2cccc(C(F)(F)F)c12 [Compound 64]	< 15 nM
Cc1cccc2nc(-c3cccnc3-n3cc[n+](C)c3)oc(=O)c12 [Compound 65]	> 150 nM
COc1cccc2nc(-c3cccnc3-n3ccnc3)oc(=O)c12 [Compound 66]	> 150 nM
CCc1cccc2nc(-c3cccnc3-n3ccnc3)oc(=O)c12 [Compound 67]	< 15 nM
Cc1cccc2nc(-c3ncccc3-n3ccnc3)oc(=O)c12 [Compound 68]	> 150 nM
COc1cccc2nc(-c3ncccc3-n3ccnc3)oc(=O)c12 [Compound 69]	> 150 nM
O=c1oc(-c2ncccc2-n2ccnc2)nc2cccc(Cl)c12 [Compound 70]	> 150 nM
O=c1oc(-c2cccnc2-n2ccnc2)nc2cccc(Cl)c12 [Compound 71]	> 150 nM
O=c1oc(-c2cccnc2-n2ccnc2)nc2cccc(Br)c12 [Compound 72]	61 to 150 nM
Cc1cccc2nc(-c3cccc[n+]3[O-])oc(=O)c12 [Compound 73]	> 150 nM
COc1cc(C)c2c(=O)oc(-c3cccnc3-n3ccnc3)nc2c1 [Compound 83]	> 150 nM
CCc1cccc2nc(-c3cccnc3-n3cc[n+](C)c3)oc(=O)c12 [Compound 84]	16 to 60 nM
CCc1cccc2nc(-c3cccnc3N3CCC(N(C)C)C3)oc(=O)c12 (stereo not shown) [Compound 85]	< 15 nM
CCc1cccc2cc(-c3c[n+]([O-])ccc3Sc3ccc(Cl)cc3)oc(=O)c12 [Compound 86]	61 to 150 nM
CCc1cccc2nc(-c3cccnc3-n3cc[n+](CCCS(=O)(=O)[O-])c3)oc(=O)c12 [Compound 87]	< 15 nM
CCc1cccc2nc(-c3cccnc3N3CCN(CCOC)CC3)oc(=O)c12 [Compound 89]	< 15 nM

Compound	IC50
CCc1cccc2nc(-c3cccnc3N3CC[C@H](N(C)C)C3)oc(=O)c12 [Compound 91]	< 15 nM
CCc1cccc2nc(-c3cccnc3N3CCCN(C)CC3)oc(=O)c12 [Compound 92]	< 15 nM
CCc1cccc2nc(-c3cccnc3N3CCN(CCC#N)CC3)oc(=O)c12 [Compound 93]	< 15 nM
CCc1cccc2nc(-c3cccnc3-n3cc[n+](Cc4ccc(Cl)cc4)c3)oc(=O)c12 [Compound 94]	16 to 60 nM
CCc1cccc2nc(-c3cccnc3N3CC[N+](C)(C)CC3)oc(=O)c12 [Compound 95]	< 15 nM
CCc1cccc2nc(-c3cccnc3N3CC[N+](C)(CCOC)CC3)oc(=O)c12 [Compound 96]	< 15 nM
CCc1cccc2nc(-c3ncccc3-n3ccnc3)oc(=O)c12 [Compound 97]	< 15 nM
CCc1cccc2nc(-c3cccnc3N3CCC[C@H]3CN3CCCC3)oc(=O)c12 [Compound 98]	< 15 nM
CCc1cccc2nc(-c3cccnc3N3CCN(Cc4ccc(F)cc4)CC3)oc(=O)c12 [Compound 99]	< 15 nM
CCc1cccc2nc(-c3cccnc3N3CC[C@@H](N(C)C)C3)oc(=O)c12 [Compound 100]	< 15 nM
CCc1cccc2nc(-c3cccnc3N3CC[N+](C)(CC(N)=O)CC3)oc(=O)c12 [Compound 101]	< 15 nM
CCc1cccc2nc(-c3cccnc3N3CC[N+](C)(Cc4ccc(OC)cc4)CC3)oc(=O)c12 [Compound 102]	< 15 nM
CCc1cccc2nc(-c3cccnc3N3CC[N+](C)(CC4CC4)CC3)oc(=O)c12 [Compound 103]	< 15 nM
CCc1cccc2nc(-c3cccnc3N3CCN4CCCC4C3)oc(=O)c12 (stereo not shown) [Compound 104]	< 15 nM
CCc1cc(OC)cc2nc(-c3cccnc3-n3ccnc3)oc(=O)c12 [Compound 106]	< 15 nM
COCCOCCOCCOCCOCCOCCOCCOc1ncccc1-c1nc2cc(OC)cc(C(C)C)c2c(=O)o1 [Compound 108]	> 150 nM

More lines, now with the values ahead:

IC50	Compound
16 to 60 nM	COc1cc(C(C)C)c2c(=O)oc(-c3cccnc3-n3ccnc3)nc2c1 [Compound 109]
61 to 150 nM	COc1cc(C(C)C)c2c(=O)oc(-c3cccnc3N3CC[C@@H](N(C)C)C3)nc2c1 [Compound 110]
61 to 150 nM	COc1cc(C(C)C)c2c(=O)oc(-c3cccnc3N3CC[C@H](N(C)C)C3)nc2c1 [Compound 111]
61 to 150 nM	COc1cc(C(C)C)c2c(=O)oc(-c3cccnc3N3CCN(CC4CC4)CC3)nc2c1 [Compound 112]
61 to 150 nM	COCCN1CCN(c2ncccc2-c2nc3cc(OC)cc(C(C)C)c3c(=O)o2)CC1 [Compound 113]
61 to 150 nM	COc1cc(C(C)C)c2c(=O)oc(-c3cccnc3N3CCN(CCN4CCOCC4)CC3)nc2c1 [Compound 114]
61 to 150 nM	COc1cc(C(C)C)c2c(=O)oc(-c3cccnc3N3CCN(CCN(C)C)CC3)nc2c1 [Compound 115]
61 to 150 nM	COc1cc(C(C)C)c2c(=O)oc(-c3cccnc3N(C)C3CCN(C)C3)nc2c1 (stereo not shown) [Compound 117]
61 to 150 nM	COc1cc(C(C)C)c2c(=O)oc(-c3cccnc3N(C)CCN(C)C)nc2c1 [Compound 118]
> 150 nM	COCCN1CCN(c2c(-c3nc4cc(OC)cc(C(C)C)c4c(=O)o3)cnn2C)CC1 [Compound 119]
16 to 60 nM	COc1cc(C(C)C)c2c(=O)oc(-c3cnn(C)c3[N+](=O)[O-])nc2c1 [Compound 120]
61 to 150 nM	COc1cc(C(C)C)c2c(=O)oc(-c3cccnc3N3CCCN(C)CC3)nc2c1 [Compound 122]
> 150 nM	COc1cc(C(C)C)c2c(=O)oc(-c3cnn(C)c3N3CCN(C)CC3)nc2c1 [Compound 123]
> 150 nM	COc1cc(C(C)C)c2c(=O)oc(-c3cnn(C)c3N(C)CCN(C)C)nc2c1 [Compound 124]
> 150 nM	COc1cc(C(C)C)c2c(=O)oc(-c3cnn(C)c3N3CCN(CCN(C)C)CC3)nc2c1 [Compound 125]
> 150 nM	COc1cc(C(C)C)c2c(=O)oc(-c3cnn(C)c3N3CC[C@H](N(C)C)C3)nc2c1 [Compound 126]
> 150 nM	COc1cc(C(C)C)c2c(=O)oc(-c3cnn(C)c3N3CCC(N(C)C)C3)nc2c1 (stereo not shown) [Compound 127]
61 to 150 nM	COc1cc(C(C)C)c2c(=O)oc(-c3cccnc3N3CC[N+](C)(CC(N)=O)CC3)nc2c1 [Compound 129]
61 to 150 nM	COc1cc(C(C)C)c2c(=O)oc(-c3cccnc3N3CC[N+](C)(C)CC3)nc2c1 [Compound 130]
< 15 nM	CCc1cc(OC)cc2nc(-c3cccnc3N3CC[C@@H](N(C)C)C3)oc(=O)c12 [Compound 131]
16 to 60 nM	CCc1cc(OC)cc2nc(-c3cccnc3N(C)C3CCN(C)C3)oc(=O)c12 (stereo not shown) [Compound 138]
61 to 150 nM	COc1cc(C2CC2)c2c(=O)oc(-c3cccnc3N3CCCN(C)CC3)nc2c1 [Compound 140]

IC50	Compound
> 150 nM	CCc1cc(N(C)C)cc2nc(-c3cccnc3N(C)C3CCN(C)C3)oc(=O)c12 (stereo not shown) [Compound 144]
> 150 nM	CCCc1cc(OC)cc2nc(-c3cccnc3N(C)C3CCN(C)C3)oc(=O)c12 (stereo not shown) [Compound 146]
61 to 150 nM	CCCc1cc(OC)cc2nc(-c3cccnc3N3CCN(CCN4CCOCC4)CC3)oc(=O)c12 [Compound 147]
16 to 60 nM	CCCc1cc(OC)cc2nc(-c3cccnc3N3CC[C@H](N(C)C)C3)oc(=O)c12 [Compound 148]
61 to 150 nM	CCCc1cc(OC)cc2nc(-c3cccnc3N3CC[C@@H](N(C)C)C3)oc(=O)c12 [Compound 149]
61 to 150 nM	CCCc1cc(OC)cc2nc(-c3cccnc3N3CCN(CCOC)CC3)oc(=O)c12 [Compound 150]
16 to 60 nM	CCCc1cc(OC)cc2nc(-c3cccnc3N(C)CCN(C)C)oc(=O)c12 [Compound 151]
< 15 nM	CCc1cccc2nc(-c3cccnc3N3CCN(CCN4CCOCC4)CC3)oc(=O)c12 [Compound 152]
16 to 60 nM	CCc1cccc2nc(-c3cccnc3N(C)C3CCN(C)C3)oc(=O)c12 (stereo not shown) [Compound 153]
< 15 nM	CCc1cccc2nc(-c3cccnc3N(C)CCN(C)C)oc(=O)c12 [Compound 154]
61 to 150 nM	CCCc1cc(OC)cc2nc(-c3cccnc3N3CCCN(C)CC3)oc(=O)c12 [Compound 156]
61 to 150 nM	CCCc1cc(OC)cc2nc(-c3cccnc3N3CCN(CC4CC4)CC3)oc(=O)c12 [Compound 157]
16 to 60 nM	CCCc1cc(OC)cc2nc(-c3cccnc3N3CCN(CCN(C)C)CC3)oc(=O)c12 [Compound 158]
< 15 nM	CCc1cccc2nc(-c3cccnc3N3CCN(CCN(C)C)CC3)oc(=O)c12 [Compound 162]
61 to 150 nM	CCCc1cc(OC)cc2nc(-c3cccnc3N3CCC(C(=O)C[S+](C)[O-])CC3)oc(=O)c12 (stereo not shown) [Compound 163]
61 to 150 nM	COc1cc(C2CC2)c2c(=O)oc(-c3cccnc3N3CC[C@@H](N(C)C)C3)nc2c1 [Compound 164]
61 to 150 nM	COc1cc(C2CC2)c2c(=O)oc(-c3cccnc3N3CC[C@H](N(C)C)C3)nc2c1 [Compound 165]
61 to 150 nM	COc1cc(C2CC2)c2c(=O)oc(-c3cccnc3N3CCN(CC4CC4)CC3)nc2c1 [Compound 166]
61 to 150 nM	COCCN1CCN(c2ncccc2-c2nc3cc(OC)cc(C4CC4)c3c(=O)o2)CC1 [Compound 167]
61 to 150 nM	COc1cc(C2CC2)c2c(=O)oc(-c3cccnc3N3CCN(CCN4CCOCC4)CC3)nc2c1 [Compound 168]
61 to 150 nM	COc1cc(C2CC2)c2c(=O)oc(-c3cccnc3N3CCN(CCN(C)C)CC3)nc2c1 [Compound 170]
61 to 150 nM	COc1cc(C2CC2)c2c(=O)oc(-c3cccnc3N(C)CCN(C)C)nc2c1 [Compound 172]

— patent publication US7879846B2, “Serine hydrolase inhibitors” (Kyorin Pharmaceutical Co.., Ltd., priority 2006, dated 2011)
